Data on 5 compounds can be found in US10294202B2, “Pyrrolidinones as herbicides” (FMC Corporation, priority 2013, dated 2019).

For one assay, the system named is bromegrass, downy. As to the kind of experiment: Test C pre-/postemergence herbicide test. It is filed as in vivo, Bromus tectorum. From the text: (§1) Seeds of plant species selected from blackgrass (Alopecurus myosuroides), ryegrass, Italian (Italian ryegrass, Lolium multiflorum), wheat (winter wheat, Triticum aestivum), galium (catchweed bedstraw, Galium aparine), corn (Zea mays), crabgrass, large (large crabgrass, Digitaria sanguinalis), foxtail, giant (giant foxtail, Setaria faberii), johnsongrass (Sorghum halepense), lambsquarters (Chenopodium album), morningglory (Ipomoea coccinea), nutsedge, yellow (yellow nutsedge, Cyperus esculentus), pigweed (Amaranthus retroflexus), ragweed (common ragweed, Ambrosia elatior), soybean (Glycine max), barnyardgrass (Echinochloa crus-galli), oilseed rape (Brassica napus), waterhemp (common waterhemp, Amaranthus rudis), kochia (Kochia scoparia), oat, wild (wild oat, Avena fatua), surinam grass (Brachiaria decumbens), foxtail, green (green foxtail, Setaria viridis), goosegrass (Eleusine indica), bromegrass, downy (downy bromegrass, Bromus tectorum), nightshade (eastern black nightshade, Solanum ptycanthum), cocklebur (common cocklebur, Xanthium strumarium), cupgrass, woolly (woolly cupgrass, Eriochloa villosa), bermudagrass (Cynodon dactylon), sunflower, (common oilseed sunflower, Helianthus annuus), Russian thistle (Salsola kali) and velvetleaf (Abutilon theophrasti) were planted into a blend of loam soil and sand and treated preemergence with test chemicals formulated in a non-phytotoxic solvent mixture which included a surfactant. At the same time, plants selected from these crop and weed species and also barley (winter barley, Hordeum vulgare), […]), chickweed (common chickweed, Stellaria media), deadnettle (henbit deadnettle, Lamium amplexicaule), and canarygrass (littleseed canarygrass, Phalaris minor) were planted in pots containing Redi-Earth® planting medium (Scotts Company, 14111 Scottslawn Road, Marysville, Ohio 43041) comprising spaghnum peat moss, vermiculite, wetting agent and starter nutrients and treated with postemergence applications of test chemicals formulated in the same manner. Plants ranged in height from 2 to 18 cm (1- to 4-leaf stage) for postemergence treatments. Treated plants and controls were maintained in a greenhouse for 13 to 15 days, after which time all species were compared to controls and visually evaluated. Plant response ratings, summarized in Table C, are based on a scale of 0 to 100 where 0 is no effect and 100 is complete control. A dash (-) response means no test result.

For another assay, the system named is foxtail, green. As to the kind of experiment: Test C pre-/postemergence herbicide test. In kind it is in vivo, Setaria viridis.
Source text: as §1

The subject of a further assay is nightshade. As to the kind of experiment: Test C pre-/postemergence herbicide test. Conditions: Preemergence. In kind it is in vivo, Solanum ptycanthum.
Source text: as §1

Another assay has as its system bermudagrass. Put plainly: Test C pre-/postemergence herbicide test. In kind it is in vivo, Cynodon dactylon.
Source text: as §1

The subject of a further assay is canarygrass. As to the kind of experiment: Test D pre-/postemergence herbicide test. In kind it is in vivo, Phalaris minor. The settings on record: for Plant response rating: Canarygrass, scale 0 to 100; for Plant response rating, Canarygrass: scale 0 to 100 (0 no effect, 100 complete control). In outline:
(§2)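 Visual injury score, 0 (no effect) to 100 (complete control), taken 7–21 d post-treatment against untreated controls. Application was preemergence in silt loam and postemergence at 1- to 4-leaf stage, using a surfactant-containing non-phytotoxic solvent formulation.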

For another assay, the system named is radish, wild. As to the kind of experiment: Test D pre-/postemergence herbicide test. It is filed as in vivo, Raphanus raphanistrum. The settings on record: for Plant response rating: Postemergence, Radish, Wild, scale 0 to 100; for Plant response rating, Radish, Wild: Preemergence, scale 0 to 100 (0 no effect, 100 complete control). In outline:
as §2

A further assay deals with ryegrass, Italian. Put plainly: Test D pre-/postemergence herbicide test. In kind it is in vivo, Lolium multiflorum. Conditions: for Plant response rating: Postemergence, Ryegrass, Italian, scale 0 to 100; for Plant response rating, Ryegrass, Italian: Preemergence, scale 0 to 100 (0 no effect, 100 complete control). In outline:
as §2

[1] abbreviates: Preemergence, 62 g ai/ha, scale 0 to 100.
Setting [2] is: Preemergence, 125 g ai/ha, scale 0 to 100 (0 no effect, 100 complete control).
Where [3] appears, read: Preemergence, 31 g ai/ha, scale 0 to 100 (0 no effect, 100 complete control).
Setting [4] is: Preemergence, 250 g ai/ha, scale 0 to 100 (0 no effect, 100 complete control).
[5] abbreviates: 125 g ai/ha, scale 0 to 100 (0 no effect, 100 complete control).
[6] abbreviates: Postemergence, 16 g ai/ha, scale 0 to 100 (0 no effect, 100 complete control).
The mark [7] stands for this setting: Postemergence, 31 g ai/ha, scale 0 (no effect) to 100 (complete control).
[8] abbreviates: Postemergence, 62 g ai/ha, scale 0 to 100 (0 no effect, 100 complete control).
Setting [9] is: Postemergence, 125 g ai/ha, scale 0 to 100 (0 no effect, 100 complete control).
Setting [10] is: Preemergence, 16 g ai/ha, scale 0 to 100.
The mark [11] stands for this setting: Postemergence, 250 g ai/ha, scale 0 to 100 (0 no effect, 100 complete control).

On to `O=C1NCC(c2ccc(Cl)c(Cl)c2)C1C(=O)Nc1ccccc1F` (racemic) [Compound 14], for which the “Plant response rating, Bromegrass, Downy” value with bromegrass, downy (setting [1]) was 0; with bromegrass, downy (setting [2]), 0; in the assay on bromegrass, downy (setting [4]), 0. The “Bromegrass, Downy plant response rating” value in the assay on bromegrass, downy (setting [3]) worked out at 0. Further, the “Plant response rating, Foxtail, Green” value in the assay on foxtail, green (setting [1]) is 90; with foxtail, green (setting [2]), 90; with foxtail, green (setting [4]), 95. The “Foxtail, Green plant response rating” value in the assay with foxtail, green (setting [3]) is 25. Further, the “Plant response rating, Nightshade” value with nightshade (62 g ai/ha, scale 0 to 100) amounted to 0. Besides, the “Plant response rating, Bermudagrass” value with bermudagrass (setting [1]) worked out at 90; in the assay with bermudagrass (setting [2]), 95; in the assay with bermudagrass (setting [4]), 95. Moreover, the “Bermudagrass plant response rating” value with bermudagrass (setting [3]) was 75.
As for `O=C1NCCC1C(=O)N(c1ccc(F)c(F)c1)c1ccccc1F` (stereo not drawn) [Compound 5, N-(3,4-difluorophenyl)-N-(2-fluorophenyl)-2-oxo-3-pyrrolidinecarboxamide], the “Plant response rating, Bromegrass, Downy” value was found to be 0 with bromegrass, downy (setting [1]); 0 in the assay with bromegrass, downy (setting [2]); 0 in the assay on bromegrass, downy (setting [4]). In addition, in the assay on bromegrass, downy (setting [3]), the “Bromegrass, Downy plant response rating” value was determined as 0. In addition, the “Plant response rating, Foxtail, Green” value in the assay on foxtail, green (setting [1]) was found to be 90; with foxtail, green (setting [2]), 90; with foxtail, green (setting [4]) it was 95. In addition, the “Foxtail, Green plant response rating” value in the assay with foxtail, green (setting [3]) is reported as 85. Moreover, the “Plant response rating, Nightshade” value in the assay with nightshade (62 g ai/ha, scale 0 to 100) is on record as 45; with nightshade (setting [5]) it was 45. The “Plant response rating, Bermudagrass” value in the assay on bermudagrass (setting [1]) came out at 0; in the assay with bermudagrass (setting [2]), 20; in the assay on bermudagrass (setting [4]), 45. Also, in the assay with bermudagrass (setting [3]), the “Bermudagrass plant response rating” value came out at 0.
As for `O=C1NCC(c2cc(F)c(F)c(F)c2)C1C(=O)Nc1cccc(F)c1F` (stereo not drawn) [Compound 48], the “Plant response rating, Bromegrass, Downy” value in the assay with bromegrass, downy (setting [6]) was determined as 0; with bromegrass, downy (setting [7]) it was 0; with bromegrass, downy (setting [8]), 0; with bromegrass, downy (setting [9]) it was 0; with bromegrass, downy (setting [1]), 0; in the assay on bromegrass, downy (setting [2]), 0. For the same compound, the “Plant response rating, Bromegrass, Downy” value with bromegrass, downy (setting [10]) is 0. Moreover, the “Bromegrass, Downy plant response rating” value in the assay with bromegrass, downy (setting [3]) was 0. Besides, the “Plant response rating, Foxtail, Green” value with foxtail, green (setting [6]) is given as 0; in the assay with foxtail, green (setting [7]), 0; in the assay with foxtail, green (setting [8]) it was 0; in the assay on foxtail, green (setting [9]), 65; with foxtail, green (setting [1]) it was 90; in the assay with foxtail, green (setting [2]) it was 90. In addition, the “Plant response rating, Foxtail, Green” value in the assay on foxtail, green (setting [10]) was determined as 70. For the same compound, in the assay with foxtail, green (setting [3]), the “Foxtail, Green plant response rating” value stood at 80. In addition, the “Plant response rating, Nightshade” value in the assay with nightshade (62 g ai/ha, scale 0 to 100) turned out to be 0; in the assay on nightshade (setting [5]) it was 0; in the assay on nightshade (16 g ai/ha, scale 0 to 100), 0. The “Plant response rating, Bermudagrass” value in the assay on bermudagrass (setting [6]) came to 0; with bermudagrass (setting [7]) it was 0; in the assay on bermudagrass (setting [8]) it was 0; with bermudagrass (setting [9]), 10; with bermudagrass (setting [1]) it was 0; with bermudagrass (setting [2]) it was 0. Besides, the “Plant response rating, Bermudagrass” value with bermudagrass (setting [10]) is 0. For the same compound, the “Bermudagrass plant response rating” value with bermudagrass (setting [3]) was 0.
For the compound `O=C1NCC(c2cc(F)c(F)cc2F)C1C(=O)Nc1cccc(F)c1F` (stereo not drawn) [Compound 50], the “Plant response rating, Bromegrass, Downy” value in the assay with bromegrass, downy (setting [7]) came to 0; in the assay on bromegrass, downy (setting [8]), 0; in the assay on bromegrass, downy (setting [9]), 0; in the assay on bromegrass, downy (setting [11]), 0. The “Plant response rating, Foxtail, Green” value in the assay with foxtail, green (setting [7]) came to 0; with foxtail, green (setting [8]), 0; in the assay on foxtail, green (setting [9]), 0; in the assay with foxtail, green (setting [11]), 30. Besides, the Plant response rating was found to be 0 in the assay on canarygrass (Postemergence, 16 g ai/ha); 0 in the assay with canarygrass (Postemergence, 31 g ai/ha); 0 with canarygrass (Postemergence, 62 g ai/ha); 0 in the assay with canarygrass (Postemergence, 125 g ai/ha); 0 with canarygrass (Preemergence, 125 g ai/ha); 0 in the assay with radish, wild (16 g ai/ha). For the same compound, the Plant response rating with radish, wild (31 g ai/ha) stood at 0; with radish, wild (62 g ai/ha), 0; in the assay with radish, wild (125 g ai/ha) it was 0; in the assay on ryegrass, Italian (16 g ai/ha) it was 0; with ryegrass, Italian (31 g ai/ha), 0; with ryegrass, Italian (62 g ai/ha), 0. The compound further gave a Plant response rating in the assay on ryegrass, Italian (125 g ai/ha) of 0. In addition, the “Plant response rating, Canarygrass” value with canarygrass (Preemergence, 62 g ai/ha) was 0; with canarygrass (Preemergence, 16 g ai/ha), 0; in the assay with canarygrass (Preemergence, 31 g ai/ha), 0. Moreover, the “Plant response rating, Radish, Wild” value stood at 0 with radish, wild (62 g ai/ha) and 0 in the assay on radish, wild (16 g ai/ha). For the same compound, the “Plant response rating, Ryegrass, Italian” value was 0 with ryegrass, Italian (62 g ai/ha); 0 in the assay on ryegrass, Italian (125 g ai/ha); 0 in the assay on ryegrass, Italian (16 g ai/ha); 0 with ryegrass, Italian (31 g ai/ha). The “Plant response rating, Bermudagrass” value with bermudagrass (setting [7]), with bermudagrass (setting [8]), in the assay on bermudagrass (setting [9]) and with bermudagrass (setting [11]) was 0 throughout.
For the compound `O=C1NCC(c2ccc(F)c(Cl)c2)C1C(=O)Nc1ccccc1F` (stereo not drawn) [Compound 60], the “Plant response rating, Bromegrass, Downy” value in the assay with bromegrass, downy (setting [7]) was 0; in the assay with bromegrass, downy (setting [8]) it was 0; in the assay with bromegrass, downy (setting [9]), 5; in the assay with bromegrass, downy (setting [1]), 0; in the assay on bromegrass, downy (setting [2]), 0. The “Bromegrass, Downy plant response rating” value in the assay with bromegrass, downy (setting [3]) is recorded as 0. In addition, the “Plant response rating, Foxtail, Green” value in the assay with foxtail, green (setting [7]) is recorded as 20; in the assay on foxtail, green (setting [8]) it was 35; with foxtail, green (setting [9]) it was 45; in the assay with foxtail, green (setting [1]), 90; in the assay on foxtail, green (setting [2]), 90. Moreover, in the assay with foxtail, green (setting [3]), the “Foxtail, Green plant response rating” value is listed as 90. Moreover, the “Plant response rating, Nightshade” value stood at 0 with nightshade (62 g ai/ha, scale 0 to 100) and 0 in the assay with nightshade (setting [5]). The “Plant response rating, Bermudagrass” value in the assay with bermudagrass (setting [7]), with bermudagrass (setting [8]), in the assay with bermudagrass (setting [9]), with bermudagrass (setting [1]) and in the assay on bermudagrass (setting [2]) was 0 throughout. Also, the “Bermudagrass plant response rating” value in the assay with bermudagrass (setting [3]) is 0.
